Experiment [1] deals with RAW264.7. The experiment in a line: Inhibition of LPS-induced iNOS protein expression in mouse RAW264.7 cells at 0.5 to 4 uM preincubated for 1 hr followed by LPS-stimulation and measured after 16 hrs by immunoblot analysis. It is filed as functional, cell-based. On the technique in general: A western blot detects proteins with antibodies after separation by electrophoresis.

The subject of experiment [2] is Mus musculus. Nature of the experiment: Antiinflammatory activity in C57BL/6 mouse model of CS-induced pulmonary injury assessed as reduction in IL-1beta protein expression in lungs at 2 to 4 mg/kg, ip for 5 days by ELISA. In kind it is functional, organism-based. (In general: In an ELISA, binding on a coated surface is turned into a signal by an enzyme label.)
Experiment [3] concerns the target T1, Nuclear factor erythroid 2-related factor 2 (Homo sapiens) (UniProt Q16236).
T1 sequence (whole entry): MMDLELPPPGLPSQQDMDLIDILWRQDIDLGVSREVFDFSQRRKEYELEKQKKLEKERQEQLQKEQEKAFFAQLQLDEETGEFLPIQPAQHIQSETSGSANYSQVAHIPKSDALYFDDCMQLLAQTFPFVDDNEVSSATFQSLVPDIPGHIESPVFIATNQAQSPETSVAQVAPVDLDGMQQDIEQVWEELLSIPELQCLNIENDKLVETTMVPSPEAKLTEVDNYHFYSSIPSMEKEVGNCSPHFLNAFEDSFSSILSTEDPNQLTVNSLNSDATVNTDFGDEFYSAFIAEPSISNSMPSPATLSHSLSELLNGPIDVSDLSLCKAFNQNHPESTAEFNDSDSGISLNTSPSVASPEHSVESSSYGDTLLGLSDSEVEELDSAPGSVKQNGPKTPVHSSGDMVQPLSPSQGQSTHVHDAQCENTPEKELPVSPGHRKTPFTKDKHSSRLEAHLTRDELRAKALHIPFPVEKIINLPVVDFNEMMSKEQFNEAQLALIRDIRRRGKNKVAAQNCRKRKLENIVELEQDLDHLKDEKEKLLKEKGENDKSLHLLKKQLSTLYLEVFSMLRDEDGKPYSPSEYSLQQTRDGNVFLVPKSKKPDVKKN
The experiment in a line: Activation of Nrf2 in human BEAS2B cells assessed as increase in Nrf2 protein expression at 1 uM incubated for 24 hrs by immunoblot analysis. In kind it is cell-based.

The target in experiment [4] is T1, Nuclear factor erythroid 2-related factor 2 (Homo sapiens). The experiment in a line: Activation of Nrf2 in human BEAS2B cells assessed as increase in GCLM protein expression incubated for 12 hrs by immunoblot analysis. In kind it is cell-based.
For experiment [5] the target is unchanged. Nature of the experiment: Activation of Nrf2 in human BEAS2B cells at 0.25 to 2 uM incubated for 12 hrs by immunoblot analysis relative to SF. In kind it is cell-based.
For experiment [6] the target is unchanged. The experiment in a line: Activation of Nrf2 in human BEAS2B cells assessed as increase in Nrf2 protein level incubated for 12 hrs by immunoblot analysis. It is filed as cell-based.
Experiment [7] shares this target. The experiment in a line: Activation of Nrf2 in human BEAS2B cells assessed as increase in Keap1 mRNA expression at 0.5 to 2 uM incubated for 24 hrs by qRT-PCR analysis. It is filed as cell-based. (Real-time PCR tracks product formation cycle by cycle.)
For experiment [8], the system named is RAW264.7. The experiment in a line: Inhibition of LPS-induced IL-1beta protein expression in mouse RAW264.7 cells at 0.5 to 4 uM preincubated for 1 hr followed by LPS-stimulation and measured after 16 hrs by immunoblot analysis. It is filed as functional, cell-based.
Experiment [9] has as its system Mus musculus. Nature of the experiment: Antiinflammatory activity in C57BL/6 mouse model of CS-induced pulmonary injury assessed as increase in Nrf2 protein expression in lungs at 2 to 4 mg/kg, ip for 5 days by immunoblot analysis. In kind it is functional, organism-based.
The test system of experiment [10] is Mus musculus. The experiment in a line: Antiinflammatory activity in C57BL/6 mouse model of CS-induced pulmonary injury assessed as reduction in thickening of the alveolar septa in lungs at 2 to 4 mg/kg, ip for 5 days by hematoxylin and eosin staining based fluorescence microscopic analysis. In kind it is functional, organism-based.
In experiment [11] the target is T1, Nuclear factor erythroid 2-related factor 2 (Homo sapiens). Nature of the experiment: Stabilization of Nrf2 in human BEAS2B cells harboring (HA)-ubiquitin assessed as suppression of Nrf2 ubiquitination at 1 uM after 8 hrs in presence of MG132 by immunoblot analysis. It is filed as cell-based.
Experiment [12] has the same target. The experiment in a line: Activation of Nrf2 in human BEAS2B cells harboring Keap1-C151S mutant assessed as increase in Nrf2 protein expression at 2.5 uM after12 hrs in presence of Keap1-siRNA by immunoblot analysis. It is filed as cell-based.
Experiment [13] concerns Mus musculus. Nature of the experiment: Antioxidant Activity in C57BL/6 mouse model of CS-induced pulmonary injury assessed as decrease in MDA level in lungs at 2 to 4 mg/kg, ip for 5 days. In kind it is functional, organism-based.
In experiment [14] the target is T2, Nuclear factor erythroid 2-related factor 2 (Mus musculus) (UniProt Q60795).
T2 sequence (whole entry): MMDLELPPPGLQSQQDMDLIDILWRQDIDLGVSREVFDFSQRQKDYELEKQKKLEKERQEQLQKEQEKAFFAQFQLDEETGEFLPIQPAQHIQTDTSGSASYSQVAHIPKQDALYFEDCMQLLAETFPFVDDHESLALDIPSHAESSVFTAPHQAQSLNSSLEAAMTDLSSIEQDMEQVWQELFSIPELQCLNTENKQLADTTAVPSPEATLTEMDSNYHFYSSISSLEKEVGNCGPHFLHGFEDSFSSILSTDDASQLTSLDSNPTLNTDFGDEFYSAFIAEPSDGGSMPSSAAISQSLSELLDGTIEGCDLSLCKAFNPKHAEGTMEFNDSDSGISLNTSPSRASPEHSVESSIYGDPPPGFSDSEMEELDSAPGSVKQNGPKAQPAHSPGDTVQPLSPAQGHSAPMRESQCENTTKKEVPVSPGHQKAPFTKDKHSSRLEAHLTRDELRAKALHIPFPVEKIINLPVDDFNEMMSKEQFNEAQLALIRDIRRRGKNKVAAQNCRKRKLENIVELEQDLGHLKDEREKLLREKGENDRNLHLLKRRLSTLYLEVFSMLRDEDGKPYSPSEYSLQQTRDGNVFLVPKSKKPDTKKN
The experiment in a line: Activation of Nrf2 in mouse Hepa1c1c7 cells assessed as increase in quinone reductase activity at 3.12 uM incubated for 24 hrs by MTT based assay. It is filed as cell-based.

Experiment [15] deals with T1, Nuclear factor erythroid 2-related factor 2 (Homo sapiens). The experiment in a line: Activation of Nrf2 in human BEAS2B cells assessed as increase in Nrf2 mRNA expression at 0.5 to 2 uM incubated for 24 hrs by qRT-PCR analysis. It is filed as cell-based.
The subject of a further experiment is BEAS-2B. Nature of the experiment: Antioxidant activity in human BEAS2B cells assessed as increase in GSH level incubated for 24 hrs. It is filed as functional, cell-based.
Experiment [16] has as its system Mus musculus. The experiment in a line: Antiinflammatory activity in C57BL/6 mouse model of CS-induced pulmonary injury assessed as reduction in goblet cell hyperplasia in perivascular areas in lungs at 2 to 4 mg/kg, ip for 5 days by hematoxylin and eosin staining based fluorescence microscopic analysis. In kind it is functional, organism-based.
For experiment [17], the target named is T1, Nuclear factor erythroid 2-related factor 2 (Homo sapiens). Nature of the experiment: Activation of Nrf2 in human BEAS2B cells assessed as increase in Nrf2 protein expression at 1 uM incubated for 8 hrs by immunoblot analysis. In kind it is cell-based.
For experiment [18], the system named is RAW264.7. Nature of the experiment: Inhibition of LPS-induced COX2 mRNA expression in mouse RAW264.7 cells at 0.5 to 4 uM preincubated for 1 hr followed by LPS-stimulation and measured after 6 hrs by qRT-PCR analysis. In kind it is functional, cell-based.
For experiment [19], the target named is Keap1/Nrf2 (Homo sapiens) (UniProt Q16236+Q14145). Nature of the experiment: Inhibition of Nrf2-KEAP1 (unknown origin) transfected in BEAS2B cells assessed as decrease in ratio of Nrf2 to Keap1 at 5 uM incubated for 24 hrs by immunoblot analysis. It is filed as cell-based.
Sequence of Keap1/Nrf2 (Homo sapiens) (Q14145 whole entry, looked up, one chain of several): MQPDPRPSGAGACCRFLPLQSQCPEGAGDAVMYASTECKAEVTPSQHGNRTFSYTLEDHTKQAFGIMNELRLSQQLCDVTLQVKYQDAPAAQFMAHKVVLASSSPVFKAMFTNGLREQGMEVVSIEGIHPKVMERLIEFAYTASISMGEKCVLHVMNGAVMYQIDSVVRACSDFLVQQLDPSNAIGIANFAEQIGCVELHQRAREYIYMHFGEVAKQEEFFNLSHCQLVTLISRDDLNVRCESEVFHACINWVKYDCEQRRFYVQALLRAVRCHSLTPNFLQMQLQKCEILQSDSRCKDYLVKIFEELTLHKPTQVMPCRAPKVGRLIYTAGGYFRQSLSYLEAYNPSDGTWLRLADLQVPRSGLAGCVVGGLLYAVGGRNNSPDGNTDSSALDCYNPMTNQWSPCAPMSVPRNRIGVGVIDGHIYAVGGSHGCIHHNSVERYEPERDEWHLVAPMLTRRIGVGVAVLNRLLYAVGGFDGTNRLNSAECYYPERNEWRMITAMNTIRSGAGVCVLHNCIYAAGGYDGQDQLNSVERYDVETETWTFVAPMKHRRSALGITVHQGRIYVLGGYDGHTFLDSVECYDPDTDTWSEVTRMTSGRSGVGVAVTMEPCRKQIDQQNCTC
For experiment [20], the target named is T1, Nuclear factor erythroid 2-related factor 2 (Homo sapiens). The experiment in a line: Activation of Nrf2 in human MDA-MB-231 cells assessed as increase in Nrf2 protein level at 0.5 uM incubated for 16 hrs by immunoblot analysis. It is filed as cell-based.

The structures appear in SMILES notation. Active and inactive are the calls of the source. No cut-off for these calls is given here.

With `CC1=C(C)C(=O)O[C@H]([C@](C)(O)[C@]2(O)CC[C@@]3(O)[C@@H]4C[C@H]5O[C@]56[C@@H](O)C=CC(=O)[C@]6(C)[C@H]4CC[C@]23C)C1`, the inhibition entry (in the experiment with RAW264.7 [1]; in the experiment on RAW264.7 [8]; in the experiment on RAW264.7 [18]; in experiment [19]) was “Active” throughout. Further, the outcome (with Mus musculus [2]; in the experiment on Mus musculus [9]; in the experiment with Mus musculus [10]; in experiment [11]; in the experiment with Mus musculus [13]; in experiment [15]) was Active. The outcome (in the experiment on BEAS-2B; in the experiment with Mus musculus [16]; in experiment [17]; in [20]) was Active. The outcome in experiment [3], in [7] and in experiment [12] was inactive. Moreover, the Activity entry in [4] and in experiment [6] was “Dose-dependent effect” in each case. Besides, the results for the fold change (FC) in experiment [5] and in experiment [14] were 2 and 2.58, respectively.

For the origin of these results see ChEMBL document CHEMBL4616634, “4β-Hydroxywithanolide E from Goldenberry (Whole Fruits of Physalis peruviana L.) as a Promising Agent against Chronic Obstructive Pulmonary Disease” (J Nat Prod, 2020).
